Laboratory results: patent US20150141342A1, “BLOOD BORNE miRNA SIGNATURE FOR THE ACCURATE DIAGNOSIS OF PANCREATIC DUCTAL ADENOCARCINOMA” (Indiana University Research and Technology Corp., priority 2013, published 2015)

How the values were obtained:
PANC-1 cells = assay: Matrigel transwell invasion assay, PANC-1; type: cell-based, human; details: PANC-1 transfected with miR-10b precursor, erlotinib 2 μM; for miR-10b's effects on combined EGF-TGF-β1 actions on invasion: 1 nM EGF + 0.5 nM TGF-β1, 20 h, SB505124 10 μM
Protocol: (§1) Invasion and Migration Assays. miR-10b precursor and precursor control transfected cells (5×104) were plated in Matrigel pre-coated transwell chambers (BD Biosciences, San Jose, Calif.) and assays performed as previously reported. UO126 (1 μM) were from Alexis Biochemicals (San Diego, Calif.). Erlotinib (2 μM; Genentech, Inc., South San Francisco, Calif.), and LY294002 (10 μM; Calbiochem, San Diego, Calif.), were added to SF in the lower chamber, in the absence or presence of 1 nM EGF and/or 0.5 nM TGF-β1. Wound healing assays were performed as previously reported. Briefly, 24 hours after cell transfection with pre-miR-10b oligonucleotides, cells were serum starved overnight, and the monolayer was scratched with a 200 μL pipette tip generating two parallel wounds. Cells were then rinsed twice with HBSS and incubated for 24 h in SF media in the absence or presence of 1 nM EGF, 0.5 nM TGF-β1, or their combination, and migration was calculated as the percent change in the wound area.

COLO-357 cells = assay: Matrigel transwell invasion assay, COLO-357; type: cell-based, human; details: COLO-357 transfected with miR-10b precursor, erlotinib 2 μM; for miR-10b's effects on combined EGF-TGF-β1 actions on invasion: 1 nM EGF + 0.5 nM TGF-β1, 20 h, SB505124 10 μM
Protocol: as §1

[1] = 1 nM EGF, 20 h, LY294002 10 μM, UO126 1 μM

SMILES | miR-10b's effects on combined EGF-TGF-β1 actions on invasion (PANC-1 cells) | EGF-induced invasion in the presence of miR-10b (PANC-1 cells; [1]) | miR-10b's effects on combined EGF-TGF-β1 actions on invasion (COLO-357 cells) | EGF-induced invasion in the presence of miR-10b (COLO-357 cells; [1])
C#Cc1cccc(Nc2ncnc3cc(OCCOC)c(OCCOC)cc23)c1 [erlotinib] | markedly attenuated | completely blocked | markedly attenuated | completely blocked
Cc1cccc(-c2[nH]c(C(C)(C)C)nc2-c2ccc3c(c2)OCO3)n1 [SB505124] | markedly attenuated |  | markedly attenuated | 
